In patent US6355799B1, “Substituted benzene compounds, process for their preparation, and herbicidal and defoliant compositions containing them” (ISK Americas Incorporated, priority 1997, dated 2002):

Legend:
Type in all cases: in vivo
[1] = tested on: upland rice (Oryza sp., var. Tebonnet, RICE); experiment: Pre-emerge test, crop safety; settings: crop damage rating 0-100, 14 days after application
In short: (§1)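 Compounds in acetone were track-sprayed at 15-1000 g ai/ha (187 l/ha) on sandy loam pots: pre-emerge one day after seeding, post-emerge at 2-3 leaf stage with 0.25% v/v non-ionic surfactant. Phytotoxicity was rated 14 days later on a 0 (no damage) to 100 (complete death) scale.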

[2] = tested on: field corn (Zea mays L., var. Dekalb 535, CORN); experiment: Pre-emerge test, crop safety; settings: crop damage rating 0-100, 14 days after application
In short: as §1

[3] = tested on: upland rice (Oryza sp., var. Tebonnet, RICE); experiment: Post-emerge test, crop safety; settings: post-emerge, 63 g ai/ha, 14 days after application, rating scale 0-100
In short: (§2)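 Visual ratings on a 0-100 scale (0 no damage, 100 all plants dead) were taken at 14 days after treatment. Rates of 15-1000 g ai/ha in acetone, 187 l/ha, were sprayed onto soil one day after planting (pre-emerge) or onto 2-3 leaf plants with 0.25% v/v surfactant (post-emerge).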

[4] = tested on: field corn (Zea mays L., var. Dekalb 535, CORN); experiment: Post-emerge test, crop safety; settings: post-emerge, 14 days after application, rating scale 0-100
In short: as §2

[5] = tested on: velvetleaf (Abutilon theophrasti, ABUTH); experiment: Pre-emerge test, greenhouse herbicide activity screening; settings: phytotoxicity rating 0-100, 14 days after application
In short: as §2

[6] = tested on: barnyardgrass (Echinochloa crus-galli, ECHCG); experiment: as above; settings: phytotoxicity rating 0-100, 14 days after application
In short: as §2

[7] = tested on: green foxtail (Setaria viridis, SETVI); experiment: as above; settings: phytotoxicity rating 0-100, 14 days after application
In short: as §2

[8] = tested on: johnsongrass (Sorghum halepense, SORHA); experiment: as above; settings: phytotoxicity rating 0-100, 14 days after application
In short: as §2

[9] = tested on: large crabgrass (Digitaria sanguinalis, DIGSA); experiment: as above; settings: phytotoxicity rating 0-100, 14 days after application
In short: as §2

[10] = tested on: sicklepod (Cassia obtusifolia, CASOB); experiment: as above; settings: phytotoxicity rating 0-100, 14 days after application
In short: as §2

[11] = tested on: lambsquarters (Chenopodium album, CHEAL); experiment: as above; settings: phytotoxicity rating 0-100, 14 days after application
In short: as §2

[12] = tested on: ivyleaf morningglory (Ipomoea hederacea, IPOHE); experiment: as above; settings: phytotoxicity rating 0-100, 14 days after application
In short: as §2

[13] = tested on: common ragweed (Ambrosia artemisizfolia L., AMBEL); experiment: as above; settings: phytotoxicity rating 0-100, 14 days after application
In short: as §2

[14] = tested on: redroot pigweed (Amaranthus retroflexus, AMARE); experiment: as above; settings: phytotoxicity rating 0-100, 14 days after application
In short: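 Plants grown in 10 cm pots of sandy loam mix received acetone-dissolved compounds through a moving flat-fan nozzle. Doses ranged from 15 to 1000 g ai/ha. Pre-emerge pots were seeded one day earlier, post-emerge pots 8–21 days earlier. Fourteen days on, each pot was graded 0–100 for damage.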

[15] = tested on: velvetleaf (Abutilon theophrasti, ABUTH); experiment: Post-emerge test, greenhouse herbicide activity screening; settings: post-emerge, 14 days after application, rating scale 0-100
In short: as §2

[16] = tested on: barnyardgrass (Echinochloa crus-galli, ECHCG); experiment: as above; settings: post-emerge, 14 days after application, rating scale 0-100
In short: as §2

[17] = tested on: green foxtail (Setaria viridis, SETVI); experiment: as above; settings: post-emerge, 14 days after application, rating scale 0-100
In short: as §2

[18] = tested on: johnsongrass (Sorghum halepense, SORHA); experiment: as above; settings: post-emerge, 14 days after application, rating scale 0-100
In short: as §2

[19] = tested on: large crabgrass (Digitaria sanguinalis, DIGSA); experiment: as above; settings: post-emerge, 14 days after application, rating scale 0-100
In short: as §2

[20] = tested on: redroot pigweed (Amaranthus retroflexus, AMARE); experiment: as above; settings: post-emerge, 14 days after application
In short: as §2

[21] = tested on: sicklepod (Cassia obtusifolia, CASOB); experiment: as above; settings: post-emerge, 14 days after application, rating scale 0-100
In short: as §2

[22] = tested on: lambsquarters (Chenopodium album, CHEAL); experiment: as above; settings: post-emerge, 14 days after application, rating scale 0-100
In short: as §2

[23] = tested on: ivyleaf morningglory (Ipomoea hederacea, IPOHE); experiment: as above; settings: post-emerge, 14 days after application, rating scale 0-100
In short: as §2

[24] = tested on: common ragweed (Ambrosia artemisizfolia L., AMBEL); experiment: as above; settings: post-emerge, 14 days after application, rating scale 0-100
In short: as §2

## 2-(4-chloro-3-ethoxy-6-fluoro-2-naphthoylamidophenyl)-1-methyl-6-trifluoromethyl-2,4(1H, 3H)-pyrimidinedione [Compound 2-196]
[1]; 63 g ai/ha
  Pre-emerge Herbicidal Activity RICE: 20
[1]; 250 g ai/ha
  Pre-emerge Herbicidal Activity RICE: 50
[2]; 63 g ai/ha
  Pre-emerge Herbicidal Activity CORN: 0
[2]; 250 g ai/ha
  Pre-emerge Herbicidal Activity CORN: 0
[3]
  phytotoxicity rating RICE (crop damage): 30
[4]; 63 g ai/ha
  phytotoxicity rating CORN (crop damage): 10
[4]; 250 g ai/ha
  phytotoxicity rating CORN (crop damage): 15
[5]; 63 g ai/ha
  Pre-emerge Herbicidal Activity ABUTH: 100
[5]; 250 g ai/ha
  Pre-emerge Herbicidal Activity ABUTH: 100
[6]; 63 g ai/ha
  Pre-emerge Herbicidal Activity ECHCG: 40
[6]; 250 g ai/ha
  Pre-emerge Herbicidal Activity ECHCG: 85
[7]; 63 g ai/ha
  Pre-emerge Herbicidal Activity SETVI: 90
[7]; 250 g ai/ha
  Pre-emerge Herbicidal Activity SETVI: 100
[8]; 63 g ai/ha
  Pre-emerge Herbicidal Activity SORHA: 10
[8]; 250 g ai/ha
  Pre-emerge Herbicidal Activity SORHA: 20
[9]; 63 g ai/ha
  Pre-emerge Herbicidal Activity DIGSA: 90
[9]; 250 g ai/ha
  Pre-emerge Herbicidal Activity DIGSA: 100
[10]; 63 g ai/ha
  Pre-emerge Herbicidal Activity CASOB: 0
[10]; 250 g ai/ha
  Pre-emerge Herbicidal Activity CASOB: 60
[11]; 63 g ai/ha
  Pre-emerge Herbicidal Activity CHEAL: 100
[11]; 250 g ai/ha
  Pre-emerge Herbicidal Activity CHEAL: 100
[12]; 63 g ai/ha
  Pre-emerge Herbicidal Activity IPOHE: 20
[12]; 250 g ai/ha
  Pre-emerge Herbicidal Activity IPOHE: 70
[13]; 63 g ai/ha
  Pre-emerge Herbicidal Activity AMBEL: 30
[13]; 250 g ai/ha
  Pre-emerge Herbicidal Activity AMBEL: 90
[14]; 63 g ai/ha
  Pre-emerge Herbicidal Activity AMARE: 100
[14]; 250 g ai/ha
  Pre-emerge Herbicidal Activity AMARE: 100
[15]; 63 g ai/ha
  phytotoxicity rating ABUTH: 100
[15]; 250 g ai/ha
  phytotoxicity rating ABUTH: 100
[16]; 63 g ai/ha
  phytotoxicity rating ECHCG: 10
[16]; 250 g ai/ha
  phytotoxicity rating ECHCG: 10
[17]; 63 g ai/ha
  phytotoxicity rating SETVI: 30
[17]; 250 g ai/ha
  phytotoxicity rating SETVI: 20
[18]; 63 g ai/ha
  phytotoxicity rating SORHA: 10
[18]; 250 g ai/ha
  phytotoxicity rating SORHA: 10
[19]; 63 g ai/ha
  phytotoxicity rating DIGSA: 10
[19]; 250 g ai/ha
  phytotoxicity rating DIGSA: 20
[20]; 63 g ai/ha, rating scale 0-100 (0 no damage, 100 complete death)
  phytotoxicity rating AMARE: 100
[20]; 250 g ai/ha, rating scale 0-100
  phytotoxicity rating AMARE: 100
[21]; 63 g ai/ha
  phytotoxicity rating CASOB: 100
[21]; 250 g ai/ha
  phytotoxicity rating CASOB: 100
[22]; 63 g ai/ha
  phytotoxicity rating CHEAL: 100
[22]; 250 g ai/ha
  phytotoxicity rating CHEAL: 100
[23]; 63 g ai/ha
  phytotoxicity rating IPOHE: 90
[23]; 250 g ai/ha
  phytotoxicity rating IPOHE: 100
[24]; 63 g ai/ha
  phytotoxicity rating AMBEL: 100
[24]; 250 g ai/ha
  phytotoxicity rating AMBEL: 90
